The results in this text go back to article PMC9486541, “Design, synthesis and cytotoxic evaluation of novel betulonic acid-diazine derivatives as potential antitumor agents” (Frontiers in Chemistry, 2022).

In one data set the test system is MCF-7. The data set is described as follows: MTT assay, MCF-7 cells. Format: cell-based, human. As to conditions: Homo sapiens, MCF7, 72 h incubation, read-out: Half maximal inhibitory concentration (IC50) values, MCF-7. From the text:
(§1) The human hepatocellular carcinoma cell line (HepG2), human hepatocellular carcinoma cell line (Bel-7402), human cervical cancer cell line (Hela), human breast adenocarcinoma cell line (MCF-7) and Madin-Darby canine kidney cell line (MDCK) were obtained from the Chinese Academy of Medical Sciences and Peking Union Medical College. Cultures were maintained as monolayer in RPMI-1640/DMEM supplemented with 10% (v/v) fetal bovine serum (FBS) and 1% (v/v) penicillin/streptomycin (Thermo Technologies, New York, NY, United States) under a humidified atmosphere containing 5% CO2 at 37°C. The BoA derivatives and positive control drugs (BoA and DDP) under study were dissolved in DMSO (Sigma, St. Louis, MO, United States) and added at required concentrations to the cell culture. Cells incubated without the preparations served as the control.
(§2) The antitumor activity was assessed by MTT assay, as previously reported ([Fang et al., 2018]). Each tested compound and positive control drugs were dissolved in DMSO and diluted with the medium to the test concentrations, and the final concentration of DMSO in the culture medium was controlled at less than 0.5% (v/v). Briefly, cells were cultured at 37°C and dispersed in replicates in 96-well plates with HepG2, Bel-7402, HeLa, MCF-7 and MDCK for 24 h. Fresh medium along with compounds (BoAA-BoAE, BoA2A-BoA2G, BoA3A-BoA3G, BoA4A-BoA4G) at different concentrations was then added to individual wells and incubated for 72 h, with BoA and DDP as the positive control. Experiments on FXR expression were separated into three groups: Control (PBS), BoA2C (8 μM), and BoA2C (8 μM) + DY268 (10 μM) ([Giordano et al., 2016]), with three repeating wells in each. In separate wells, BoA2C and DY268 were introduced and cultured for 72 h. After 72 h, the cell was incubated with MTT solution (0.5 mg/ml) for an additional 4 h at 37°C. The produced formazan crystals were solubilized with DMSO, and the optical density of solution was measured at 570 nm using a plate reader (BIORAD 550 spectrophotometer, Bio-rad Life Science Development Ltd., Beijing, China). Wells without drugs were used to be blanks. The IC50 values were defined as the concentration of compounds that produced a 50% proliferation inhibition of surviving cells and calculated using the Graph Pad Prism 5. The inhibitory rate was calculated in the following Equation 1, where OD is the optical density: % inhibition=[1−(OD Sample group−OD Blank group)/(OD Control group−OD Blank group)]×100% (1)

Data set [1] concerns MCF-7 cells. The data set is described as follows: Wound healing assay. The format is cell-based, human. The conditions noted are these: 8 μM, 0, 24, 48 h, compared to control group. The protocol: MCF-7 cells were seeded in six-well plates at a density of […] and incubated at 37°C to achieve 100 percent confluence. After starving the cells for 24 h, a wound (cell-free) was drawn across the center of the well using the tip of a 1 ml plastic pipette. Wells were cleaned twice with PBS before being treated for 48 h with BoA2C (8 μM). At 0 h, 24 h, and 48 h, cells were viewed and photographed in randomly selected fields using an inverted light microscope (Nikon).

Data set [2] relates to MCF-7 cells. The data set is described as follows: DAPI staining of nuclear changes, MCF-7. The format is cell-based, human. As to conditions: MCF-7 cells, 2, 4, 8 μM, 72 h. On the procedure:
Morphological observation of nuclear changes was performed by DAPI staining in this assay. MCF-7 cells in the logarithmic growth phase were seeded in 12-well plates at a density of 5 × 10^3 cells/well and were allowed to grow for 24 h. Then the cells were treated with different concentration ranges of BoA2C (0, 2, 4 8 μM) for 72 h. After the treatment period, cells were washed with PBS and fixed with 4% paraformaldehyde for 10 min. Then the liquid was discarded, and the cells were stained with DAPI (1 mg/ml, Molecular Probes/Invitrogen Life Technologies, Carlsbad, CA, United States) for 1 min in dark. After staining, cells were visualized under a fluorescence microscope (Olympus IX71, Tokyo, Japan).

The subject of another data set is MDCK. The data set is described as follows: MTT assay, MDCK normal cell line. The format is cell-based, canine.
Text: as §1, §2

For a further data set, the system named is Bel-7402. The data set is described as follows: MTT assay, Bel-7402 cells. Format: cell-based, human. As to conditions: Homo sapiens, Bel-7402, 72 h incubation, read-out: Half maximal inhibitory concentration (IC50) values, Bel-7402.
Text: as §1, §2

The next data set concerns Hela. The data set is described as follows: MTT assay, Hela cells. The conditions noted are these: Homo sapiens, HeLa, 72 h incubation, read-out: Half maximal inhibitory concentration (IC50) values, Hela. The format is cell-based, human.
Text: as §1, §2

The next data set deals with HepG2. The data set is described as follows: MTT assay, HepG2 cells. The conditions noted are these: Homo sapiens, HepG2, 72 h incubation, read-out: Half maximal inhibitory concentration (IC50) values, HepG2. The format is cell-based, human.
Text: as §1, §2

Turning to `C=C(C)[C@@H]1CC[C@]2(C(=O)OCCOC(=O)c3cnc(C)cn3)CC[C@]3(C)[C@H](CC[C@@H]4[C@@]5(C)CCC(=O)C(C)(C)[C@@H]5CC[C@]43C)[C@@H]12` [BoA2C, (5-Methylpyrazin-2-acyloxy)-ethyl-3-oxolup-20(29)-en-28-oate], the melting point fell in the range of 139 to 141 °C. The IC50 in the data set with MCF-7 was 3.39 ± 0.07 µM. In addition, the “migration of cells in the scratch wound” value in the data set on MCF-7 cells [1] is “obviously reduced the migration of MCF-7 cells”. Further, the “nuclear morphological changes (DAPI staining)” value in the data set with MCF-7 cells [2] is on record as “nuclear morphological changes typical of apoptosis in a dose-dependent manner”. The “cytotoxicity on MDCK cell line compared with DDP (cisplatin)” value with MDCK (72 h) is “lower cytotoxicity on MDCK cell line than cisplatin”. The IC50 with MDCK (Canis lupus familiaris, MDCK, 72 h incubation, normal cell line, read-out: Half maximal inhibitory concentration (IC50) values, MDCK) was > 30 µM. The IC50 in the data set on Bel-7402 amounted to 3.65 ± 0.43 µM. Moreover, the IC50 with Hela is 15.6 ± 2.63 µM. Moreover, the IC50 in the data set on HepG2 amounted to 7.46 ± 1.43 µM.
